Measurements from the CheMixHub viscosity set.

Test: xn = mol fraction of the nth substance listed

Brc1ccccc1 + O=[N+]([O-])c1ccccc1
viscosity [mPa·s], 101 kPa
Details | x2 = 0.117 | x2 = 0.225 | x2 = 0.345 | x2 = 0.464 | x2 = 0.554 | x2 = 0.676 | x2 = 0.79 | x2 = 0.887
298.15 K | 1.106 | 1.164 | 1.227 | 1.296 | 1.352 | 1.465 | 1.556 | 1.673
303.15 K | 1.036 | 1.075 | 1.13 | 1.209 | 1.246 | 1.355 | 1.459 | 1.551
308.15 K | 0.973 | 1.015 | 1.06 | 1.117 | 1.173 | 1.251 | 1.345 | 1.423

C=CC[P+](c1ccccc1)(c1ccccc1)c1ccccc1.[Br-] + OCC(O)CO
101 kPa, x1 = 0.0667
Details | viscosity [mPa·s]
296.84 K | 1037
302.15 K | 679.9
306.82 K | 475.9
312.25 K | 314.4

C1COCCO1 + OCCO
viscosity [mPa·s], 100 kPa
Details | x1 = 0.1014 | x1 = 0.2054 | x1 = 0.2968 | x1 = 0.3998 | x1 = 0.4966 | x1 = 0.5992 | x1 = 0.7005 | x1 = 0.7985 | x1 = 0.8969
293.15 K | 15.53 | 11.26 | 8.022 | 5.534 | 3.77 | 2.758 | 2.223 | 1.737 | 1.405
298.15 K | 12.4 | 9.243 | 6.602 | 4.535 | 3.152 | 2.436 | 1.983 | 1.569 | 1.329
303.15 K | 10.21 | 7.423 | 5.425 | 3.682 | – | 2.169 | 1.78 | 1.401 | –

C=CC[P+](c1ccccc1)(c1ccccc1)c1ccccc1.[Br-] + OCCOCCO
viscosity [mPa·s], 100 kPa
Details | 293.15 K | 298.15 K | 303.15 K | 308.15 K | 313.15 K | 318.15 K | 323.15 K
x1 = 0.05884 | 57.19 | 43.59 | 33.68 | 26.69 | 21.74 | 17.83 | 14.79
x1 = 0.09089 | 70.92 | 53.42 | 41.11 | 32.27 | 25.8 | 20.96 | 17.27
x1 = 0.2 | 213.2 | 150.8 | 109.1 | 81.11 | 61.8 | 47.98 | 37.87

Brc1ccccc1 + OCCOCCOCCO
viscosity [mPa·s], 101 kPa
Details | 298.15 K | 308.15 K
x2 = 0.0462 | 1.316 | 1.168
x2 = 0.1502 | 2.173 | 1.769
x2 = 0.2493 | 3.39 | 2.568
x2 = 0.3505 | 5.164 | 3.674
x2 = 0.4433 | 7.374 | 5.002
x2 = 0.4974 | 8.957 | 5.935
x2 = 0.5484 | 10.66 | 6.933
x2 = 0.6475 | 14.61 | 9.221
x2 = 0.7514 | 19.62 | 12.15
x2 = 0.8484 | 25.03 | 15.37
x2 = 0.937 | 30.42 | 18.72

C=CC[P+](c1ccccc1)(c1ccccc1)c1ccccc1.[Br-] + OCCOCCOCCO
viscosity [mPa·s], 100 kPa
Details | 293.15 K | 298.15 K | 303.15 K | 308.15 K | 313.15 K | 318.15 K | 323.15 K
x1 = 0.05879 | 76.63 | 57.94 | 44.82 | 35.26 | 28.28 | 22.99 | 18.97
x1 = 0.0909 | 95.29 | 71.69 | 54.83 | 42.76 | 33.94 | 27.41 | 22.42
x1 = 0.2 | 233.7 | 166.5 | 121.6 | 90.91 | 69.36 | 53.99 | 42.73

BrCCBr + c1ccccc1
101.33 kPa
Details | viscosity [mPa·s]
298.15 K, x1 = 0.0999 | 0.6395
298.15 K, x1 = 0.2016 | 0.6889
298.15 K, x1 = 0.312 | 0.8229
298.15 K, x1 = 0.4109 | 0.8428
298.15 K, x1 = 0.5099 | 0.8941
298.15 K, x1 = 0.6073 | 1.034
298.15 K, x1 = 0.7101 | 1.116
298.15 K, x1 = 0.8038 | 1.253
298.15 K, x1 = 0.9005 | 1.422
308.15 K, x1 = 0.1052 | 0.5588
308.15 K, x1 = 0.2078 | 0.6034
308.15 K, x1 = 0.3146 | 0.6379
308.15 K, x1 = 0.4086 | 0.7026
308.15 K, x1 = 0.5068 | 0.7767
308.15 K, x1 = 0.6088 | 0.8569
308.15 K, x1 = 0.7019 | 0.961
308.15 K, x1 = 0.8028 | 1.128
308.15 K, x1 = 0.9019 | 1.219

Brc1ccccc1 + c1ccccc1
101 kPa
Details | viscosity [mPa·s]
298.15 K, x1 = 0.0867 | 0.636
298.15 K, x1 = 0.116 | 0.649
298.15 K, x1 = 0.8 | 0.96
303.15 K, x1 = 0.086 | 0.61
303.15 K, x1 = 0.176 | 0.653
303.15 K, x1 = 0.268 | 0.7
303.15 K, x1 = 0.362 | 0.742
303.15 K, x1 = 0.46 | 0.785
303.15 K, x1 = 0.561 | 0.827
303.15 K, x1 = 0.665 | 0.867
303.15 K, x1 = 0.774 | 0.909
303.15 K, x1 = 0.884 | 0.951
308.15 K, x1 = 0.0867 | 0.558
308.15 K, x1 = 0.116 | 0.568
318.15 K, x1 = 0.0867 | 0.492
318.15 K, x1 = 0.116 | 0.504
323.15 K, x1 = 0.0867 | 0.461
323.15 K, x1 = 0.116 | 0.47
323.15 K, x1 = 0.8 | 0.711

C1COCCO1 + c1ccccc1
303.15 K, 101 kPa
Details | viscosity [mPa·s]
x1 = 0.1009 | 0.603
x1 = 0.104 | 0.599
x1 = 0.207 | 0.644
x1 = 0.3017 | 0.687
x1 = 0.309 | 0.686
x1 = 0.4005 | 0.736
x1 = 0.411 | 0.733
x1 = 0.4969 | 0.787
x1 = 0.511 | 0.779
x1 = 0.6 | 0.841
x1 = 0.61 | 0.828
x1 = 0.7019 | 0.895
x1 = 0.709 | 0.882
x1 = 0.8015 | 0.961
x1 = 0.807 | 0.937
x1 = 0.904 | 0.991

CC(C)[N+](=O)[O-] + c1ccccc1
293.15 K, 101.33 kPa
Details | viscosity [mPa·s]
x1 = 0.0983 | 0.631
x1 = 0.2123 | 0.62
x1 = 0.2863 | 0.619
x1 = 0.4048 | 0.622
x1 = 0.5002 | 0.631
x1 = 0.5981 | 0.641
x1 = 0.7032 | 0.661
x1 = 0.7847 | 0.683
x1 = 0.908 | 0.731

COC(=O)CC(=O)OC + c1ccccc1
303.15 K, 101 kPa
Details | viscosity [mPa·s]
x1 = 0.0794 | 0.6916
x1 = 0.1634 | 0.8208
x1 = 0.2505 | 0.9519
x1 = 0.3426 | 1.078
x1 = 0.4381 | 1.206
x1 = 0.5395 | 1.341
x1 = 0.6457 | 1.456
x1 = 0.7579 | 1.58
x1 = 0.8751 | 1.696

COc1ccccc1O + c1ccccc1
303.15 K, 101 kPa
Details | viscosity [mPa·s]
x2 = 0.1 | 3.4
x2 = 0.2 | 2.49
x2 = 0.3 | 1.97
x2 = 0.4 | 1.57
x2 = 0.5 | 1.29
x2 = 0.6 | 1.04
x2 = 0.7 | 0.873
x2 = 0.8 | 0.742
x2 = 0.9 | 0.641

Ic1ccccc1 + c1ccccc1
viscosity [mPa·s], 101 kPa
Details | 298.15 K | 308.15 K | 318.15 K | 323.15 K
x1 = 0.0668 | 0.646 | 0.565 | 0.499 | 0.469
x1 = 0.0896 | 0.66 | 0.578 | 0.512 | 0.478
x1 = 0.8 | 1.274 | – | – | 0.917

COc1ccccc1O + c1ccncc1
303.15 K, 101 kPa
Details | viscosity [mPa·s]
x2 = 0.1 | 5.04
x2 = 0.2 | 5.38
x2 = 0.25 | 5.4
x2 = 0.27 | 5.42
x2 = 0.3 | 5.4
x2 = 0.4 | 4.94
x2 = 0.5 | 4
x2 = 0.6 | 3.3
x2 = 0.7 | 2.07
x2 = 0.8 | 1.48
x2 = 0.9 | 1.09
